In patent US5650442A (priority 1994, dated 1997):
Entries after “also recorded” stand apart in the source; their conditions may differ.

Experiments:
[1] = test system: embryohal ovarian carcinoma (EOC) ascites tumors; test: Survival of mice with EOC ascites tumors treated with melphalan with or without DEA/NO; format: in vivo, C3H mice
Experimental: Female C3H mice with embryohal ovarian carcinoma (EOC) ascites tumors were generated by intraperitoneal injection of 1.0×10^5 EOC cells at 10 weeks. Eight days later, when ascites were grossly evident, the animals were injected intraperitoneally with phosphate-buffered saline (PBS) as a control, melphalan (6.25 mg/kg), or melphan in combination with DEA/NO (70 mg/kg). Animals were assessed daily for survival.
FIG. 17 is a graph of % survival of animals versus days after treatment showing survival curves for animals treated with melphalan in the presence or absence of DEA/NO compared to control animals. Median survival of the control group was 15 days. Median survival of the group of mice treated with melphalan alone was 20 days, whereas median survival of the group of mice treated with melphalan and DEA/NO was 27 days.

[2] = test system: Chinese hamster V79 cells; test: Survival of hypoxic V79 cells after a single radiation dose; format: cell-based; conditions: vs control cells
Experimental: Chinese hamster V79 cells were exposed to 15 Gy radiation under hypoxic conditions in the absence or presence of 1 mM SPER/NO (H2 N(CH2)3 N[N(O)NO]^- (CH2)4 NH2^+ (CH2)3 NH2).
Chinese hamster V79 cells were exposed to 20 Gy radiation under hypoxic conditions in the absence or presence of 2 mM SNAP.
Chinese hamster V79 cells were exposed to a single 20 Gy dose of radiation in the absence or presence of 2 mM SIN-1 or PAPA/NO. […] The data are consistent with the requirement of SIN-1 for oxygen, unlike the NONOates, which release NO independent of oxygen levels.

[3] = test system: transplantable murine tumor; conditions: mouse, in vivo; cited from earlier work
[4] = test system: Chinese hamster V79 fibroblasts; test: Protection of V79 cells from cisplatin cytotoxicity; format: cell-based; conditions: 1 mM, 1 hr
Experimental: Chinese hamster V79 fibroblasts were exposed to varying concentrations of cisplatin under aerobic conditions for 1 hr in the presence or absence of 1 mM PAPA/NO, n-propyl-1,3-propane diamine (PPD), or released PAPA/NO under aerobic conditions. Methods used were as described in Examples 2 and 13.

[5] = test system: Chinese hamster V79 fibroblasts; test: Chemosensitization of V79 cells to bioreductive agents (mitomycin C, SR 4233); conditions: hypoxic, 1 hr
[6] = test system: Chinese hamster V79 lung fibroblasts; test: Radiation survival of hypoxic V79 monolayers gassed with nitrogen and exposed to NO gas; format: cell-based
Experimental: (§1) Hypoxic Chinese hamster V79 lung fibroblasts of Example 2 were irradiated at room temperature with 4 MeV photons from a linear accelerator at a dose rate of 1.5 Gy/min. Full electron equilibrium was ensured for all irradiations.
(§2) Following irradiation, the various cell suspensions were pipetted, counted, diluted, and plated for macroscopic colony formation. Each dose determination was plated in triplicate and experiments were repeated a minimum of two times. Plates were incubated for seven days, after which colonies were fixed with methanol/acetic acid (3:1), stained with crystal violet, and counted. Colonies containing >50 cells were scored and graphed as FIGS. 1-3. Error bars in the graphs represent the standard deviation of the mean and are shown when larger than the symbol used to designate a data point. Survival curve data were fitted using a linear quadratic model of Albright (Radiat. Res., 112, 331-340 (1987)), and the survival curves shown in the figures represent the best fit curves for the experimental data points. Sensitizer enhancement ratios (SER) were calculated by dividing the radiation dose for control hypoxic conditions by the radiation dose for various agents under hypoxic conditions at the 1% surviving fraction level.

cells in culture = conditions: aerobic (~20% oxygen) vs hypoxic (<0.5% oxygen); cited from earlier work
rodent tumors = conditions: hyperbaric oxygen (100%); cited from earlier work
hypoxic cells = conditions: without the nitrobenzoyl group; cited from earlier work
[7] = test system: Chinese hamster V79 lung fibroblasts; test: Radiation survival of hypoxic V79 cells (metabolism-mediated oxygen depletion), clonogenic assay, SER; format: cell-based; conditions: for modification of hypoxic radiosensitivity: 2.0 mM; for SER: 2.00 mM, hypoxic, 1% surviving fraction level, ± SD
Experimental: (§3) Chinese hamster V79 lung fibroblasts were cultured in F12 medium supplemented with 10% fetal calf serum and antibiotics. […] The assay system was specifically designed to evaluate radiation sensitivity of cells exposed to radiation under both aerobic and hypoxic conditions (Mitchell et al., Radiat. Res., 96, 422-428 (1983); Russo et al., Radiat. Res., 103, 232-239 (1985); and DeGraff et al., Int. J. Radiat. Oncol. Biol. Phys., 16, 1021-1024 (1989)).
(§4) When cultured cells were exposed to DEA/NO in subsequent examples, DEA/NO in F12 medium with 10 mM HEPES buffer, pH 7.0, was used. […] Control cells in subsequent examples were exposed to 0.02N NaOH, instead of DEA/NO.
The induction of hypoxia in dense cell suspensions by metabolism-mediated oxygen depletion was carried out as described by Mitchell et al. (supra) and Phillips et al. (Int. J. Radiat. Oncol. Biol. Phys., 12, 1627-1635 (1986)). Briefly, stock cultures of exponentially growing Chinese hamster V79 lung fibroblasts in 850 cm^2 roller bottles were trypsinized, rinsed with medium, and counted. Samples of 10^8 cells were then placed in 15 ml centrifuge tubes, centrifuged at 1,000 rpm for 5 min at 25° C., and rinsed once with medium or medium containing DEA/NO (final concentrations ranging from 0.1-2.0 mM), nitrite, diethylamine, or DEA/NO that had been allowed to decompose in full medium overnight at 37° C.
The cell suspension was taken up into a 3 ml glass syringe with a 18 gauge spinal needle. Air bubbles were removed, and a 25 gauge needle was fitted onto the syringe. The syringe was rotated by hand at room temperature for 20 min to allow for cellular metabolic oxygen consumption. The syringe was then placed in a lucite block and irradiated. After a given dose of radiation, 1-3 drops of cell suspension were discarded, and 1-2 drops were collected in tubes containing drug-free medium. In this manner an entire hypoxic survival curve for a given treatment condition can be obtained from a single syringe.
as §1, §2
(§5) Radiation survival curves for V79 cells exposed to varying concentrations of DEA/NO and various DEA/NO decomposition products under hypoxic conditions (metabolic hypoxia induction) are shown in FIG. 1A, which is a graph of the surviving fraction versus dose (Gy).

[8] = test system: Chinese hamster V79 lung fibroblasts; test: Cytotoxicity of the agents alone to V79 cells, clonogenic assay; conditions: 2.0 mM
Experimental: as §3, §4
as §5, with “(Gy). Lines in FIG. 1A represent control (.circle-solid.) and 0.1 mM (Δ), 0.5 mM (.largecircle.), 1.0 mM (.quadrature.), and 2.0 mM (.box-solid.) DEA/NO. Survival curves were corrected for drug cytotoxicity as appropriate.” for “(Gy).”
DEA/NO (2.0 mM) was allowed to decompose to liberate NO in medium maintained at 37° C. overnight in a flask open to the air for use as an additional control. The medium containing the DEA/NO decomposition products was then used to evaluate possible effects on radiosensitization.

[9] = test system: Chinese hamster V79 lung fibroblasts; test: Radiation survival of aerobic V79 cells, clonogenic assay; format: cell-based; conditions: 2.0 mM
Experimental: as §3, §4, §2

normal tissues = conditions: clinical radiotherapy trials; cited from earlier work
hypoxic bacterial cells = conditions: cited from earlier work
lungs = conditions: NO gas, in vivo; cited from earlier work

N[C@@H](Cc1ccc(N(CCCl)CCCl)cc1)C(=O)O [melphalan]
Overall survival vs control group ([1]; log-rank testing): significantly longer than the control group
Median survival ([1]; melphalan 6.25 mg/kg i.p., with or without DEA/NO 70 mg/kg): 20 days

Cl.N=c1c[n+](N2CCOCC2)[n-]o1 [SIN-1, 3-morpholino-sydnonimine hydrochloride, reference compound]
susceptibility of hypoxic cells to radiation ([2]; 2 mM plus 20 Gy, Example 10): not significantly sensitized to radiation as compared to control cells
enhancement of tumor radiation sensitivity [3]: enhances the radiation sensitivity of a transplantable murine tumor

CC(=O)N[C@H](C(=O)O)C(C)(C)SN=O [SNAP, S-nitroso-N-acetyl penicillamine, reference compound]
susceptibility of hypoxic cells to radiation ([2]; 2 mM plus 20 Gy, Example 7): significantly more susceptible to radiation than control cells

CCCN(CCCN)/[N+]([O-])=N/O [PAPA/NO]
susceptibility of hypoxic cells to radiation ([2]; 2 mM plus 20 Gy, Example 10): much more susceptible to radiation than control cells
protection against aerobic cisplatin-induced cytotoxicity [4]: protected V79 fibroblasts against aerobic cisplatin-induced cytotoxicity
enhancement of hypoxic cytotoxicity of SR 4233 ([5]; 25 μm SR 4233, 1 mM): enhance the hypoxic cytotoxicity of SR 4233
colonies formed when 100,000 cells were plated ([5]; 25 μm SR 4233 plus 1 mM): no colonies were formed

O=O [oxygen]
EC50 ([6]; Cricetulus griseus, Fibroblast, hypoxic cell radiosensitization, read-out: k value (concentration required to yield half the maximum effect)): 2500 µg/mL
enhancement of killing of cells in culture with X-rays (factor) (cells in culture): 2-3
hypoxic radiosensitization in rodent tumors (rodent tumors): some degree of hypoxic radiosensitization in rodent tumors

NCCCNCCCCNCCCN [spermine]
sensitizing properties (hypoxic cells): failed to demonstrate any sensitizing properties whatsoever

O=NO [Nitrite, nitrite, reference compound]
modification of hypoxic radiosensitivity [7]: nor did any of these agents significantly modify hypoxic radiosensitivity
SER [7]: 1.0
cytotoxicity of decomposition products alone [8]: Neither nitrite, diethylamine, or decomposed DEA/NO alone resulted in any cytotoxicity
effect on aerobic radiosensitivity [9]: did not significantly alter the aerobic radiosensitivity

CCNCC [Diethylamine, diethylamine, reference compound]
modification of hypoxic radiosensitivity [7]: nor did any of these agents significantly modify hypoxic radiosensitivity
SER [7]: 1.0
cytotoxicity of decomposition products alone [8]: Neither nitrite, diethylamine, or decomposed DEA/NO alone resulted in any cytotoxicity
effect on aerobic radiosensitivity [9]: did not significantly alter the aerobic radiosensitivity

COCC(O)Cn1ccnc1[N+](=O)[O-] (centres unmarked) [Misonidazole, misonidazole]
toxicity to normal tissues (normal tissues): toxic to normal tissues, causing peripheral neuropathy

NCCCNCCCCN(CCCN)/[N+]([O-])=N/O [SPER/NO]
susceptibility of hypoxic cells to radiation ([2]; 1 mM plus 15 Gy): more susceptible to radiation than control cells

nitric oxide [NO gas]
SER ([6]; 10^5 ppm NO, hypoxic): 3.2
hypoxic cell radiosensitization ([6]; NO gas vs control / oxygen): potent hypoxic cell radiosensitizer; also recorded: not as efficient as oxygen in hypoxic cell radiosensitization
toxicity in the absence of radiation (hypoxic bacterial cells): nontoxic in the absence of radiation
radiosensitization of hypoxic bacterial cells (hypoxic bacterial cells; ionizing radiation): sensitizes hypoxic bacterial cells to ionizing radiation
damage on administration of high concentrations (lungs): damage to the lungs

NCCCCNCCCN [spermidine]
sensitizing properties (hypoxic cells): failed to demonstrate any sensitizing properties whatsoever
